US12077503B2, “Substituted cyclic amides and their use as herbicides” (FMC CORPORATION, priority 2015, dated 2024)

What was measured:
Format in all cases: in vivo
[1] = test system: blackgrass (Alopecurus myosuroides); assay: Test A postemergence; details: Alopecurus myosuroides, post-emergence, 240 h, Postemergence; for pest or weed control at 125 g/ha: 125 g ai/ha, visual rating about 10 d after treatment, read-out: Blackgrass plant response rating (0 to 100 scale); for pest or weed control at 500 g/ha: 500 g ai/ha, visual injury, 0 to 100 scale (0 no effect, 100 complete control), approx. 10 d, read-out: Plant response rating, Blackgrass
Method in brief: (§1)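 Visual injury scores from 0, no effect, to 100, complete control, were assigned versus untreated controls roughly 10 d after treatment in the greenhouse. Test chemicals, formulated with surfactant in a non-phytotoxic solvent, were applied to planted seeds as a preemergence soil spray or postemergence to one- to two-leaf plants 2 to 10 cm tall, in loam–sand soil.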

[2] = test system: Galium (catchweed bedstraw, Galium aparine); assay: Test A postemergence; details: Galium, post-emergence, 240 h, Postemergence; for pest or weed control at 125 g/ha: 125 g ai/ha, visual rating about 10 d after treatment, read-out: Galium plant response rating (0 to 100 scale); for pest or weed control at 500 g/ha: 500 g ai/ha, visual injury, 0 to 100 scale (0 no effect, 100 complete control), approx. 10 d, read-out: Plant response rating, Galium
Method in brief: as §1

[3] = test system: wheat (Triticum aestivum); assay: Test A postemergence; details: Triticum aestivum, post-emergence, 240 h, Postemergence; for plant injury at 125 g/ha: 125 g ai/ha, visual rating about 10 d after treatment, read-out: Wheat plant response rating (0 to 100 scale); for plant injury at 500 g/ha: 500 g ai/ha, visual injury, 0 to 100 scale (0 no effect, 100 complete control), approx. 10 d, read-out: Plant response rating, Wheat
Method in brief: as §1

[4] = test system: barnyardgrass (Echinochloa crus-galli); assay: Test A postemergence; details: Echinochloa crus-galli, post-emergence, 240 h, Postemergence; for pest or weed control at 125 g/ha: 125 g ai/ha, visual rating about 10 d after treatment, read-out: Barnyardgrass plant response rating (0 to 100 scale, 0 no effect, 100 complete control); for pest or weed control at 500 g/ha: 500 g ai/ha, visual injury, 0 to 100 scale (0 no effect, 100 complete control), approx. 10 d, read-out: Plant response rating, Barnyardgrass
Method in brief: as §1

Kochia (Kochia scoparia) [5] = assay: Test A postemergence; details: Bassia scoparia, post-emergence, 240 h, Postemergence; for pest or weed control at 125 g/ha: 125 g ai/ha, visual rating about 10 d after treatment, read-out: Kochia plant response rating (0 to 100 scale); for pest or weed control at 500 g/ha: 500 g ai/ha, visual injury, 0 to 100 scale (0 no effect, 100 complete control), approx. 10 d, read-out: Plant response rating, Kochia
Method in brief: as §1

[6] = test system: ragweed (common ragweed, Ambrosia elatior); assay: Test A postemergence; details: Ambrosia artemisiifolia, post-emergence, 240 h, Postemergence; for pest or weed control at 125 g/ha: 125 g ai/ha, visual rating about 10 d after treatment, read-out: Ragweed plant response rating (0 to 100 scale); for pest or weed control at 500 g/ha: 500 g ai/ha, visual injury, 0 to 100 scale (0 no effect, 100 complete control), approx. 10 d, read-out: Plant response rating, Ragweed
Method in brief: as §1

corn (Zea mays) = assay: Test A postemergence; details: Zea mays, post-emergence, 240 h, Postemergence; for plant injury at 125 g/ha: 125 g ai/ha, visual rating about 10 d after treatment, read-out: Corn plant response rating (0 to 100 scale); for Corn plant response rating (crop injury, 0 = no effect, 100 = complete kill) at 500 g/ha: 500 g ai/ha, visual injury, 0 to 100 scale (0 no effect, 100 complete control), approx. 10 d
Method in brief: as §1

[7] = test system: ryegrass, Italian (Italian ryegrass, Lolium multiflorum); assay: Test A postemergence; details: Lolium multiflorum, post-emergence, 240 h, Postemergence; for pest or weed control at 125 g/ha: 125 g ai/ha, visual rating about 10 d after treatment, read-out: Ryegrass, Italian plant response rating (0 to 100 scale); for pest or weed control at 500 g/ha: 500 g ai/ha, visual injury, 0 to 100 scale (0 no effect, 100 complete control), approx. 10 d, read-out: Plant response rating, Ryegrass, Italian
Method in brief: as §1

[8] = test system: pigweed (Amaranthus retroflexus); assay: Test A postemergence; details: Amaranthus retroflexus, post-emergence, 240 h, Postemergence; for pest or weed control at 125 g/ha: 125 g ai/ha, visual rating about 10 d after treatment, read-out: Pigweed plant response rating (0 to 100 scale); for pest or weed control at 500 g/ha: 500 g ai/ha, visual injury, 0 to 100 scale (0 no effect, 100 complete control), approx. 10 d, read-out: Plant response rating, Pigweed
Method in brief: as §1

[9] = test system: giant foxtail (Setaria faberii); assay: Test A postemergence; details: Setaria faberi, post-emergence, 240 h, Postemergence; for pest or weed control at 125 g/ha: 125 g ai/ha, visual rating about 10 d after treatment, read-out: Foxtail, Giant plant response rating (0 to 100 scale); for pest or weed control at 500 g/ha: 500 g ai/ha, visual injury, 0 to 100 scale (0 no effect, 100 complete control), approx. 10 d, read-out: Plant response rating, Foxtail, Giant
Method in brief: as §1

[10] = test system: barnyardgrass (Echinochloa crus-galli); assay: Test A preemergence; details: Echinochloa crus-galli, pre-emergence, 240 h; for pest or weed control at 125 g/ha: 125 g ai/ha; for pest or weed control at 500 g/ha: 500 g ai/ha
Method in brief: as §1

Kochia (Kochia scoparia) [11] = assay: Test A preemergence; details: Bassia scoparia, pre-emergence, 240 h; for pest or weed control at 125 g/ha: 125 g ai/ha; for pest or weed control at 500 g/ha: 500 g ai/ha
Method in brief: as §1

[12] = test system: ragweed (common ragweed, Ambrosia elatior); assay: Test A preemergence; details: Ambrosia artemisiifolia, pre-emergence, 240 h; for pest or weed control at 125 g/ha: 125 g ai/ha; for pest or weed control at 500 g/ha: 500 g ai/ha
Method in brief: as §1

[13] = test system: ryegrass, Italian (Italian ryegrass, Lolium multiflorum); assay: Test A preemergence; details: Lolium multiflorum, pre-emergence, 240 h; for pest or weed control at 125 g/ha: 125 g ai/ha; for pest or weed control at 500 g/ha: 500 g ai/ha
Method in brief: as §1

[14] = test system: pigweed (Amaranthus retroflexus); assay: Test A preemergence; details: Amaranthus retroflexus, pre-emergence, 240 h; for pest or weed control at 125 g/ha: 125 g ai/ha; for pest or weed control at 500 g/ha: 500 g ai/ha
[15] = test system: giant foxtail (Setaria faberii); assay: Test A preemergence; details: Setaria faberi, pre-emergence, 240 h; for pest or weed control at 125 g/ha: 125 g ai/ha; for pest or weed control at 500 g/ha: 500 g ai/ha
Method in brief: as §1

O=C1NC[C@H](c2nccc(C(F)(F)F)n2)[C@H]1C(=O)Nc1ccccc1F [Compound 1304]
0%: pest or weed control at 125 g/ha [1] | pest or weed control at 500 g/ha [1] | pest or weed control at 125 g/ha [2] | pest or weed control at 500 g/ha [2] | plant injury at 125 g/ha [3] | plant injury at 500 g/ha [3] | pest or weed control at 125 g/ha [4] | pest or weed control at 500 g/ha [4] | pest or weed control at 125 g/ha (Kochia (Kochia scoparia) [5]) | pest or weed control at 500 g/ha (Kochia (Kochia scoparia) [5]) | pest or weed control at 125 g/ha [6] | pest or weed control at 500 g/ha [6] | plant injury at 125 g/ha (corn (Zea mays)) | Corn plant response rating (crop injury, 0 = no effect, 100 = complete kill) at 500 g/ha (corn (Zea mays)) | pest or weed control at 125 g/ha [7] | pest or weed control at 500 g/ha [7] | pest or weed control at 125 g/ha [8] | pest or weed control at 500 g/ha [8] | pest or weed control at 125 g/ha [9] | pest or weed control at 500 g/ha [9] | pest or weed control at 125 g/ha ([10]; preemergence, visual injury rating, 0 to 100 scale where 0 is no effect and 100 is complete control, approximately 10 d, read-out: Barnyardgrass plant response rating) | pest or weed control at 500 g/ha ([10]; preemergence, 0 to 100 scale where 0 is no effect and 100 is complete control, read-out: Barnyardgrass plant response rating) | pest or weed control at 125 g/ha (Kochia (Kochia scoparia) [11]; preemergence, visual injury rating, 0 to 100 scale where 0 is no effect and 100 is complete control, approximately 10 d, read-out: Kochia plant response rating) | pest or weed control at 500 g/ha (Kochia (Kochia scoparia) [11]; preemergence, 0 to 100 scale where 0 is no effect and 100 is complete control, read-out: Kochia plant response rating) | pest or weed control at 125 g/ha ([12]; preemergence, visual injury rating, 0 to 100 scale where 0 is no effect and 100 is complete control, approximately 10 d, read-out: Ragweed plant response rating) | pest or weed control at 500 g/ha ([12]; preemergence, 0 to 100 scale where 0 is no effect and 100 is complete control, read-out: Ragweed plant response rating) | pest or weed control at 125 g/ha ([13]; preemergence, visual injury rating, 0 to 100 scale where 0 is no effect and 100 is complete control, approximately 10 d, read-out: Ryegrass, Italian plant response rating) | pest or weed control at 500 g/ha ([13]; preemergence, 0 to 100 scale where 0 is no effect and 100 is complete control, read-out: Ryegrass, Italian plant response rating) | pest or weed control at 125 g/ha ([14]; preemergence, visual injury rating, 0 to 100 scale where 0 is no effect and 100 is complete control, approximately 10 d, read-out: Pigweed plant response rating) | pest or weed control at 500 g/ha ([14]; preemergence, 0 to 100 scale where 0 is no effect and 100 is complete control, read-out: Pigweed plant response rating) | pest or weed control at 125 g/ha ([15]; preemergence, visual injury rating, 0 to 100 scale where 0 is no effect and 100 is complete control, approximately 10 d, read-out: Foxtail, Giant plant response rating) | pest or weed control at 500 g/ha ([15]; preemergence, 0 to 100 scale where 0 is no effect and 100 is complete control, read-out: Foxtail, Giant plant response rating)

O=C1NC[C@H](c2cncs2)[C@H]1C(=O)Nc1cccc(F)c1F [Compound 1336]
0%: pest or weed control at 125 g/ha [1] | pest or weed control at 500 g/ha [1] | pest or weed control at 125 g/ha [2] | pest or weed control at 500 g/ha [2] | plant injury at 125 g/ha [3] | plant injury at 500 g/ha [3] | pest or weed control at 125 g/ha [4] | pest or weed control at 500 g/ha [4] | pest or weed control at 125 g/ha (Kochia (Kochia scoparia) [5]) | pest or weed control at 500 g/ha (Kochia (Kochia scoparia) [5]) | pest or weed control at 125 g/ha [6] | pest or weed control at 500 g/ha [6] | plant injury at 125 g/ha (corn (Zea mays)) | Corn plant response rating (crop injury, 0 = no effect, 100 = complete kill) at 500 g/ha (corn (Zea mays)) | pest or weed control at 125 g/ha [7] | pest or weed control at 500 g/ha [7] | pest or weed control at 125 g/ha [8] | pest or weed control at 500 g/ha [8] | pest or weed control at 125 g/ha [9] | pest or weed control at 500 g/ha [9] | pest or weed control at 500 g/ha ([10]; preemergence, 0 to 100 scale (0 no effect, 100 complete control), read-out: Plant response rating, Barnyardgrass) | pest or weed control at 125 g/ha ([10]; Preemergence, 0 to 100 scale (0 no effect, 100 complete control), read-out: Plant response rating, Barnyardgrass) | pest or weed control at 500 g/ha (Kochia (Kochia scoparia) [11]; preemergence, 0 to 100 scale (0 no effect, 100 complete control), read-out: Plant response rating, Kochia) | pest or weed control at 125 g/ha (Kochia (Kochia scoparia) [11]; Preemergence, 0 to 100 scale (0 no effect, 100 complete control), read-out: Plant response rating, Kochia) | pest or weed control at 500 g/ha ([12]; preemergence, 0 to 100 scale (0 no effect, 100 complete control), read-out: Plant response rating, Ragweed) | pest or weed control at 125 g/ha ([12]; Preemergence, 0 to 100 scale (0 no effect, 100 complete control), read-out: Plant response rating, Ragweed) | pest or weed control at 500 g/ha ([13]; preemergence, 0 to 100 scale (0 no effect, 100 complete control), read-out: Plant response rating, Ryegrass, Italian) | pest or weed control at 125 g/ha ([13]; Preemergence, 0 to 100 scale (0 no effect, 100 complete control), read-out: Plant response rating, Ryegrass, Italian) | pest or weed control at 500 g/ha ([14]; preemergence, 0 to 100 scale (0 no effect, 100 complete control), read-out: Plant response rating, Pigweed) | pest or weed control at 125 g/ha ([14]; Preemergence, 0 to 100 scale (0 no effect, 100 complete control), read-out: Plant response rating, Pigweed) | pest or weed control at 500 g/ha ([15]; preemergence, 0 to 100 scale (0 no effect, 100 complete control), read-out: Plant response rating, Foxtail, Giant) | pest or weed control at 125 g/ha ([15]; Preemergence, 0 to 100 scale (0 no effect, 100 complete control), read-out: Plant response rating, Foxtail, Giant)
